# Test results: patent publication US9598424B2 (Takeda Pharmaceutical Company Limited, priority 2014, dated 2017)
# How the values were obtained:
# Full length human TBK1 = biological target: T1, Full length human TBK1 (Homo sapiens, UniProt Q9UHD2); assay: Inhibition of TBK1 Enzyme (Caliper microfluidic assay); format: biochemical; conditions: 25 μM ATP, 60 min at RT; -log(IC50), IC50 molar; read-out: TBK1 Inhibition (pIC50) (converted)
# T1 construct: Full length human TBK1 with an N-terminal His-tag; His-tag (N); made in house; host or cells: Sf9 insect cells (baculovirus, pFastBac1)
# T1 sequence (Q9UHD2 1-729): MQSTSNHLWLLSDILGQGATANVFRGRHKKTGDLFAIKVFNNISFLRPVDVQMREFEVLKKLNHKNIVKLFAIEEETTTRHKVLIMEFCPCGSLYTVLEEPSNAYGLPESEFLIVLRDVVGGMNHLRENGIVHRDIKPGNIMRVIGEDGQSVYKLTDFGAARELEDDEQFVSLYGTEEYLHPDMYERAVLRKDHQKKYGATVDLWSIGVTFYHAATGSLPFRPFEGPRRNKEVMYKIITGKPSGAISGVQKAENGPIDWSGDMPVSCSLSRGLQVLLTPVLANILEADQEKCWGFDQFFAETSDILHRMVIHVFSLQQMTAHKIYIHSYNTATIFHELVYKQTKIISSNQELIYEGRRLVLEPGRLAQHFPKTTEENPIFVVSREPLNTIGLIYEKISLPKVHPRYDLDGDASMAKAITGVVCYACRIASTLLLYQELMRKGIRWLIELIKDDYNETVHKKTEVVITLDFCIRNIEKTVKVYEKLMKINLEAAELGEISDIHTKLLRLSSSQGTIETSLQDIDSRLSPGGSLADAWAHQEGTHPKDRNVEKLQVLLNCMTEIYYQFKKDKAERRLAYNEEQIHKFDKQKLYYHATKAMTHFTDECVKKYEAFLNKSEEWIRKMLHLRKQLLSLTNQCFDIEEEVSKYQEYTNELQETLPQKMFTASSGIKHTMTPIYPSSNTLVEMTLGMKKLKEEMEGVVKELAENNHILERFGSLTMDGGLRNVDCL
# Experimental: Full length human TBK1 with an N-terminal His-tag was cloned into the pFastBacl vector and was transfected into Sf9 cells. 72 hours later the virus was harvested and amplified through two additional rounds of infections. Then 400 ml of the resulting virus stock was used to infect 10L of Sf9 cells at a density of 2×10^6 cells/ml. Cell pellets were harvested 48 hours post infection and were lysed by freeze-thaw, homogenization and sonication in binding buffer (25 mM Tris pH7.6, 1 M NaCl, 10 mM imidazole, 0.5 mM TCEP) plus 0.1% Triton X-100 and complete protease inhibitor cocktail. The lysate was spun and the supernatant was purified with a HisTrap FF crude and a Superdex 200 pg column.
# TBK1 inhibition is determined using a 384 well plate format in buffer containing 20 mM Hepes, pH 7.4, 10 mM MgCl2, 1 mM EDTA, 0.01% Brij-L23, 1 mM DTT. Each test compound is prepared in DMSO using 2.5-fold serial dilutions for 11 data points, which are added to the buffer so that each dilution contains 1% DMSO. To each well is added 2 μL of 1 μm 5FAM-DRHDSGLDSMKDE-NH2 (in buffer), 2 μL of diluted test compound (1% DMSO in buffer), and 5 μL of 3 nM TBK1 and 25 μM ATP (in buffer). The reaction mixture is incubated at RT for 60 min, and quenched by adding 20 mM Hepes, pH 7.4, 10 mM MgCl2, 1 mM EDTA, 0.01% Brij-L23, 1 mM DTT+25 mM EDTA. To quantify the fluorescent-labeled substrate and product following reaction, the test plate is loaded on a Caliper LC-3000, which measures percent of conversion by microfluidic-based separation. Corresponding IC50 values are calculated by non-linear curve fitting of the compound concentrations and percent of inhibition to the standard IC50 equation and reported as pIC50, i.e., −log(IC50), where IC50 is the molar concentration.
# TBK1 = biological target: T2, TBK1 (Homo sapiens, UniProt Q9UHD2); assay: Inhibition of TBK1 in Cells (TLR3 driven ISRE β-lactamase reporter assay); format: cell-based; conditions: poly IC-LMW stimulation 16 hrs; -log(EC50), EC50 molar; read-out: Inhibition of TBK1 in cells pEC50 (EC) (converted)
# T2 construct: host or cells: RA1-ISRE beta-lactamase reporter cells
# T2 sequence (Q9UHD2 1-729): T1 sequence (Q9UHD2 1-729)
# Experimental: TBK1 inhibition is determined using a TLR3 driven RA1-ISRE β-lacatamase reporter assay (Life Technologies). In the assay 50,000 cells/well are plated in black clear bottom 384 well plate. Each test compound is prepared in DMSO using 2.5-fold serial dilutions for 11 data points, which are then added to the media. Cells are stimulated with 0.15 mg/ml poly IC-LMW (Invivogen) for 16 hrs. Reporter activity is detected using the LiveBLAzer-FRET B/G CCF4-AM substrate (Life Technologies) and the plate is read using the Spectramax M5 instrument. Corresponding EC50 values are calculated by non-linear curve fitting of the compound concentrations and percent of inhibition to the standard EC50 equation and reported as pEC50, i.e., −log(EC50), where EC50 is the molar concentration.
IC50 (Full length human TBK1),EC50 (TBK1),SMILES
10 nM,229 nM,"C[C@@H](NC(=O)c1nc(-c2ccc3nc(NC(=O)C4CC4)cn3c2)c[nH]1)C(F)(F)F [Example 9, 4-{2-cyclopropaneamidoimidazo[1,2-a]pyridin-6-yl}-N-[(2R)-1,1,1-trifluoropropan-2-yl]-1H-imidazole-2-carboxamide]"
316 nM,> 50100 nM,"C[C@H](NC(=O)c1nc(-c2ccc3nc(NC(=O)C4CC4)cn3c2)c[nH]1)C(F)(F)F [Example 10, 4-{2-cyclopropaneamidoimidazo[1,2-a]pyridin-6-yl}-N-[(2S)-1,1,1-trifluoropropan-2-yl]-1H-imidazole-2-carboxamide]"
63.1 nM,813 nM,"CC(F)(F)CNC(=O)c1nc(-c2ccc3nc(NC(=O)C4CC4)cn3c2)c[nH]1 [Example 11, 4-{2-cyclopropaneamidoimidazo[1,2-a]pyridin-6-yl}-N-(2,2-difluoropropyl)-1H-imidazole-2-carboxamide]"
20 nM,955 nM,"O=C(NCC(F)F)c1nc(-c2ccc3nc(NC(=O)C4CC4)cn3c2)c[nH]1 [Example 12, 4-{2-cyclopropaneamidoimidazo[1,2-a]pyridin-6-yl}-N-(2,2-difluoroethyl)-1H-imidazole-2-carboxamide]"
200 nM,,"O=C(NCC(F)(F)F)c1ncc(-c2ccc3nc(NC(=O)C4CC4)cn3c2)s1 [Example 22, 5-(2-(cyclopropanecarboxamido)imidazo[1,2-a]pyridin-6-yl)-N-(2,2,2-trifluoroethyl)thiazole-2-carboxamide]"
398 nM,,"Cc1sc(C(=O)NCC(F)(F)F)nc1-c1ccc2nc(NC(=O)C3CC3)cn2c1 [Example 31, 4-(2-(cyclopropanecarboxamido)imidazo[1,2-a]pyridin-6-yl)-5-methyl-N-(2,2,2-trifluoroethyl)thiazole-2-carboxamide]"
398 nM,,"O=C(NCCO)c1nc(-c2ccc3nc(NC(=O)C4CC4)cn3c2)cs1 [Example 95, 4-(2-(cyclopropanecarboxamido)imidazo[1,2-a]pyridin-6-yl)-N-(2-hydroxyethyl)thiazole-2-carboxamide]"

# The remaining lines, values behind:
SMILES,IC50 (Full length human TBK1),EC50 (TBK1)
"O=C(NC1CCCOC1)c1nc(-c2ccc3nc(NC(=O)C4CC4)cn3c2)cs1 (stereo in doubt) [Example 88, (S)-4-(2-(cyclopropanecarboxamido)imidazo[1,2-a]pyridin-6-yl)-N-(tetrahydro-2H-pyran-3-yl)thiazole-2-carboxamide]",63.1 nM,1550 nM
"O=C(NCC(F)F)c1nc(-c2cn3cc(NC(=O)C4CC4)nc3cn2)cs1 [Example 5, 4-(2-(cyclopropanecarboxamido)imidazo[1,2-a]pyrazin-6-yl)-N-(2,2-difluoroethyl)thiazole-2-carboxamide]",10 nM,794 nM
"O=C(NCC(F)(F)F)c1nc(-c2cn3cc(NC(=O)C4CC4)nc3cn2)cs1 [Example 6, 4-(2-(cyclopropanecarboxamido)imidazo[1,2-a]pyrazin-6-yl)-N-(2,2,2-trifluoroethyl)thiazole-2-carboxamide]",7.94 nM,355 nM
"O=C(NCC(F)F)c1nc(-c2ccc3nc(NC(=O)C4CC4)cn3n2)cs1 [Example 8, 4-(2-(cyclopropanecarboxamido)imidazo[1,2-b]pyridazin-6-yl)-N-(2,2-difluoroethyl)thiazole-2-carboxamide]",200 nM,9120 nM
"O=C(CF)Nc1cn2cc(-c3csc(C(=O)NCC(F)(F)F)c3)ccc2n1 [Example 16, 4-(2-(2-fluoroacetamido)imidazo[1,2-a]pyridin-6-yl)-N-(2,2,2-trifluoroethyl)thiophene-2-carboxamide]",79.4 nM,1050 nM
"N#CCC(=O)Nc1cn2cc(-c3csc(C(=O)NCC(F)(F)F)c3)ccc2n1 [Example 17, 4-(2-(2-cyanoacetamido)imidazo[1,2-a]pyridin-6-yl)-N-(2,2,2-trifluoroethyl)thiophene-2-carboxamide]",79.4 nM,2950 nM
"O=C(NCC(F)F)c1cc(-c2ccc3nc(NC(=O)C4CC4)cn3n2)cs1 [Example 18, 4-(2-(cyclopropanecarboxamido)imidazo[1,2-b]pyridazin-6-yl)-N-(2,2-difluoroethyl)thiophene-2-carboxamide]",10 nM,251 nM
"O=C(NCC(F)F)c1cc(-c2cn3cc(NC(=O)C4CC4)nc3cn2)cs1 [Example 19, 4-(2-(cyclopropanecarboxamido)imidazo[1,2-a]pyrazin-6-yl)-N-(2,2-difluoroethyl)thiophene-2-carboxamide]",5.01 nM,407 nM
"Cc1sc(C(=O)NCC(F)(F)F)nc1-c1ccc2nc(NC(=O)C3CC3)cn2n1 [Example 20, 4-(2-(cyclopropanecarboxamido)imidazo[1,2-b]pyridazin-6-yl)-5-methyl-N-(2,2,2-trifluoroethyl)thiazole-2-carboxamide]",501 nM,
"O=C(NCC(F)F)c1ccn(-c2ccc3nc(NC(=O)C4CC4)cn3n2)n1 [Example 37, 1-(2-(cyclopropanecarboxamido)imidazo[1,2-b]pyridazin-6-yl)-N-(2,2-difluoroethyl)-1H-pyrazole-3-carboxamide]",794 nM,
"O=C(NCC(F)(F)F)c1cn(-c2ccc3nc(NC(=O)C4CC4)cn3c2)cn1 [Example 41, 1-(2-(cyclopropanecarboxamido)imidazo[1,2-a]pyridin-6-yl)-N-(2,2,2-trifluoroethyl)-1H-imidazole-4-carboxamide]",63.1 nM,
"COC1CCN(C(=O)c2cc(-c3ccc4nc(NC(=O)C5CC5)cn4c3)cs2)CC1 [Example 58, N-(6-(5-(4-methoxypiperidine-1-carbonyl)thiophen-3-yl)imidazo[1,2-a]pyridin-2-yl)cyclopropanecarboxamide]",794 nM,
"NC(=O)[C@@H]1CC(F)(F)CN1C(=O)c1cc(-c2ccc3nc(NC(=O)C4CC4)cn3c2)cs1 [Example 82, (S)-1-(4-(2-(cyclopropanecarboxamido)imidazo[1,2-a]pyridin-6-yl)thiophene-2-carbonyl)-4,4-difluoropyrrolidine-2-carboxamide]",631 nM,
"O=C1CC(NC(=O)c2nc(-c3ccc4nc(NC(=O)C5CC5)cn4c3)cs2)CN1 (centres unmarked) [Example 99, 4-(2-(cyclopropanecarboxamido)imidazo[1,2-a]pyridin-6-yl)-N-(5-oxopyrrolidin-3-yl)thiazole-2-carboxamide]",251 nM,
"O=C(Nc1cn2cc(-c3csc(C(=O)N4CCC(CO)C4)n3)ccc2n1)C1CC1 (centres unmarked) [Example 100, N-(6-(2-(3-(hydroxymethyl)pyrrolidine-1-carbonyl)thiazol-4-yl)imidazo[1,2-a]pyridin-2-yl)cyclopropanecarboxamide]",200 nM,
"COC1CN(C(=O)c2nc(-c3ccc4nc(NC(=O)C5CC5)cn4c3)cs2)C1 [Example 101, N-(6-(2-(3-methoxyazetidine-1-carbonyl)thiazol-4-yl)imidazo[1,2-a]pyridin-2-yl)cyclopropanecarboxamide]",631 nM,
